From ChEMBL document CHEMBL1132307, “(2R,1'S,2'R,3'S)-2-(2'-Carboxy-3'-phenylcyclopropyl)glycine (PCCG-13), the first potent and selective competitive antagonist of phospholipase D-coupled metabotropic glutamate receptors: asymmetric synthesis and preliminary biological properties” (J Med Chem, 1999) come the findings set out here.

SMILES strings stand for the structures. Bounds are passed on as bounds.

Common to all, as to assay type: functional, tissue-based
Details in all cases: Hippocampus

Assay [1] is described as follows: Agonistic activity against phospholipase D (PLD) was determined in adult rat hippocampal slices.
Assay [2] can be described thus: Antagonistic activity against phospholipase D (PLD) was determined in adult rat hippocampal slices.
The nature of assay [3]: Antagonistic activity against phospholipase C (PLC) was determined in adult rat hippocampal slices.

For orientation: EC50 means the concentration at which the effect is half-maximal. A lower EC50 goes with greater potency. One may read the IC50 as the midpoint of a concentration-inhibition curve. Higher therefore signals a need for much substance. As for `CC(N)(C(=O)O)c1ccc(C(=O)O)cc1` (stereo unspecified), in assay [1], the 50% effective concentration (EC50) was found to be 110 µM. The molecule also registered an IC50 in assay [2] of 530 µM.
As to `N[C@@]1(C(=O)O)CC[C@@H](C(=O)O)C1`, the EC50 in assay [1] came out at 30 µM.
In assay [2], `N[C@H](C(=O)O)c1cc(O)cc(O)c1` registered an IC50 of 70 µM.
With `NC(C(=O)O)[C@@H]1[C@H](C(=O)O)[C@H]1c1ccccc1` (stereo partly specified), the IC50 is greater than 300 µM in assay [3] and 0.025 µM in assay [2].
